Results published in patent US20240316038A1, “APOL1 INHIBITORS AND METHODS OF USE” (Maze Therapeutics, Inc., priority 2021, published 2024).

How the values were obtained:
APOL1 G2 [1] = target: T1, APOL1 G2 (Homo sapiens, UniProt O14791, DEL388-389); assay: APOL1 calcium transport inhibition assay (GCaMP6f calcium influx, FLIPR) in HEK T-REx/GCaMP6f/APOL1 G2 K6.3 cells; type: cell-based; details: inhibition of APOL1-mediated calcium influx; geometric mean of at least 2 assay runs, † = single assay run (technical duplicate)
T1 construct: expressed in transfected cells; host or cells: HEK293 T-REx clonal lines: HEK T-REx/GCaMP6f/APOL1 G2 K6.3 in A1, HEK293/T-REx APOL1 G2/clone #2 in A2
T1 sequence (O14791 with tags, fused parts or gaps DEL388-389): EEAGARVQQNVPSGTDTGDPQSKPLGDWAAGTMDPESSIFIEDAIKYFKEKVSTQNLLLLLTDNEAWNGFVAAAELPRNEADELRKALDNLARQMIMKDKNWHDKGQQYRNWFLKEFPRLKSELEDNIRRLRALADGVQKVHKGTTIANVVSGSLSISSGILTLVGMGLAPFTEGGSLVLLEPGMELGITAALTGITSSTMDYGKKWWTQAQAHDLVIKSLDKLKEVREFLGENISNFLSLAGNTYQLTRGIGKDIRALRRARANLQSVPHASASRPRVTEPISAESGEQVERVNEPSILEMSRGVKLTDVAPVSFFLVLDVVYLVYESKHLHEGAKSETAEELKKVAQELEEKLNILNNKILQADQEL
In short: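 HEK293 cells stably expressing GCaMP6f, APOL1 G2 induced 6 h with doxycycline (20 ng/mL added), then washed into Ca2+-free Tyrode's buffer pH 7.4. Compounds (8-point dose response) preincubated 10 min at room temperature, then Ca2+ injected to 5 mM final and influx read on FLIPR. AC50 reported as geometric mean of runs.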

APOL1 G2 [2] = target: T1, APOL1 G2; assay: Rescue of HEK293 cell death caused by overexpression of APOL1 (CellTiter-Glo luminescence), HEK293/T-REx APOL1 G2/clone #2; type: cell-based; details: reversal of cell death caused by overexpression of APOL1; geometric mean of at least 2 assay runs, † = single assay run (technical duplicate)
In short: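 Rescue EC50s come from four-parameter logistic fits, geometric mean of at least 2 runs on separate days, each in duplicate. Readout: CellTiter-Glo luminescence after 17 h at 37 °C of 5,000 HEK293/T-REx APOL1 G2 clone #2 cells/well, with 6 ng/mL doxycycline to induce APOL1 and 3-fold serial compound dilutions in 0.5% DMSO.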

CC(CN1C[C@@H](COc2ccc(S(C)(=O)=O)cc2)[C@H](C)C1)c1cc(Cl)cc(C#N)c1 (single isomer, unassigned) [Compound 147, 3-chloro-5-[(2R or 2S)-1-[(3S, 4S)-3-[(4-meth-anesulfonylphen-oxy)methyl]-4-methylpyrroli-din-1-yl]propan-2-yl]benzonitrile] gave an AC50 (APOL1 G2 [1]) of 1110 nM and an EC50 (APOL1 G2 [2]) of 618 nM.
C[C@@]1(O)CN(CCc2cccc(Cl)c2)C[C@@H]1COc1ccc(S(C)(=O)=O)cc1 (single isomer, unassigned) [Compound 209, (3R,4S or 3S,4R)-1-[2-(3-chlorophenyl)ethyl]-4-[(4-methanesulfonylphenoxy)methyl]-3-methylpyrrolidin-3-ol pyrrolidine-3-ol] showed an AC50 (APOL1 G2 [1]) of 3740 nM and an EC50 (APOL1 G2 [2]) of over 19500 nM.
Work on C[C@@H]1CN(CCc2cccc(Cl)c2)C[C@H]1COc1ccc(S(C)(=O)=O)cc1 (single isomer, unassigned) [Compound 155, (35,4S or 3R, 4R)-1-[2-(3-chlorophenyl)-ethyl]-3-[(4-methanesulfon-ylphenoxy)meth-yl]-4-methyl-pyrrolidine] yielded an AC50 (APOL1 G2 [1]) of 1980 nM and an EC50 (APOL1 G2 [2]) of 2490 nM.
With CN(c1ccc(OC[C@@H](O)CNCCc2cc(Cl)cc(Cl)c2)cc1)S(C)(=O)=O [Compound 91, (S)-N-(4-(3-((3,5-dichlorophenethyl)amino)-2-hydroxypropoxy)phe-nyl)-N-methylmethanesulfon-amide] the AC50 (APOL1 G2 [1]) was 472 nM and the EC50 (APOL1 G2 [2]) was 1040 nM.
CC(CN1C[C@@H](COc2ccc(S(C)(=O)=O)cc2)C[C@H]1C)c1cc(Cl)cc(C#N)c1 (single isomer, unassigned) [Compound 143, 3-chloro-5-[(2S or 2R)-1-[(2R, 4S)-4-[(4-meth-anesulfonyl-phenoxy)meth-yl]-2-methyl-pyrrolidin-1-yl]-propan-2-yl]-benzonitrile] showed an AC50 (APOL1 G2 [1]) of 3160 nM and an EC50 (APOL1 G2 [2]) of 349 nM.
In the case of C[C@]1(O)CN(CCc2cccc(Cl)c2)C[C@@H]1COc1ccc(S(C)(=O)=O)cc1 (single isomer, unassigned) [Compound 206, (3R,4R or 3S,4S)-1-[2-(3-chlorophenyl)ethyl]-4-[(4-methanesulfonylphenoxy)methyl]-3-methylpyrrolidin-3-ol], the AC50 (APOL1 G2 [1]) is reported as over 25000 nM and the EC50 (APOL1 G2 [2]) is reported as over 30000 nM.
